Assay results reported in patent publication US20230052740A1, “MODULATORS OF CIRCADIAN RHYTHMS AND USES THEREOF” (The Regents of the University of California, priority 2019, published 2023).
Read-outs that look alike come from different tables or passages of the source. Blank lines part the entries; values can stand above or below the compound they belong to.

Key:
[1] = target: hMT1 (Homo sapiens, UniProt P48039); assay: cAMP assay (GloSensor), isoproterenol-stimulated cAMP in HEK cells; assay type: cell-based; set-up: expressed in transfected cells; host or cells: HEK-T (HEK-293 T) cells, co-transfected with GloSensor DNA
Procedure: HEK-293 T cells were maintained with complete Dulbecco's modified Eagle's medium (DMEM), which is composed of 10% fetal bovine serum (FBS), 2 mM L-glutamine, 100 units/ml penicillin G, 100 μg/ml streptomycin at 37° C. in the presence of 5% CO2
(§1) MT1 and MT2 receptors were tested using Promega's spilt luciferase based GboSensor cAMP biosensor technology. HEK-T cells were plated in 15 cm cell culture dish (at a density of 18 million cells) containing DMEM composed of 10% dialyzed FBS, 2 mM L-glutamine, 100 units/ml penicillin G, 100 μg/ml streptomycin for 4-6 hour. Then, cells were co-transfected with 8 μg of construct which encodes either MT1 or MT2 (de-Tangonized constructs) and […] of Glosensor DNA. Next day, transfected cells were seeded into poly-L-lysinecoated 384-well white clear bottom cell culture plates with complete DMEM with 1% dialized FBS at a density of 20,000 cells per well for another 24 h. The next day, cell medium were discarded and loaded with 20 μl of assay buffer (1×HBSS, 20 mM HEPES, pH 7.4, 0.1% BSA). To measure agonist activity of MT1 or MT2 receptor, 10 μl of test compound solution at 3× final concentration was added for 15 minutes followed by addition of 10 μl of luciferin/isoproterenol mixture (at a final concentration of 4 mM and 200 nM respectively) for another 15 mins for luminescence quantification. Then, plates were counted using SpectraMax luminescence reader (Molecular Device). Data were analyzed using GraphPad Prism 6.0.

[2] = target: T1, MT2 (Homo sapiens, UniProt P49286); assay: as above; assay type: cell-based; set-up: expressed in transfected cells; host or cells: HEK-T (HEK-293 T) cells, co-transfected with GloSensor DNA; MT2 activity: dose or concentration left out as unconfirmed; settings: for Emax: read-out: MT2 % Emax (converted); for MT2 pEC50: Table 2
T1 sequence (P49286 1-362): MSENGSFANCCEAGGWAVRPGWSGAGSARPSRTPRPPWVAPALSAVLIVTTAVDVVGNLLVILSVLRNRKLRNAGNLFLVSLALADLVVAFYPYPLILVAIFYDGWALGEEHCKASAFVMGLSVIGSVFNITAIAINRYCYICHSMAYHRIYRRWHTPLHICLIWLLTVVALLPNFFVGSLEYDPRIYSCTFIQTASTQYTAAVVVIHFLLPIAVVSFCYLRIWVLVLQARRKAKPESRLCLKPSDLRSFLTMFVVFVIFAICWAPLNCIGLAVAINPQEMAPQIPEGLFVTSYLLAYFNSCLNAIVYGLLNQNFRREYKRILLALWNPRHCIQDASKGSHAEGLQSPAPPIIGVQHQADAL
Procedure: as §1, with “Next day, transfected cells were seeded into poly-L-lysinecoated 384-well white clear bottom cell culture plates with complete DMEM with 1% dialized FBS at a density of 20,000 cells per well for another 24 h.” left out

[3] = HEK293, Table 6, Inverse (inverse agonist), read-out: MT1 Emax
[4] = Table 6, Inverse (inverse agonist), read-out: MT1 pEC50 (converted)
[5] = panel of widely-used MTR ligands, in words
[6] = HEK293, Table 1, agonist, normalized to melatonin response, read-out: MT1 % Emax (converted)
[7] = HEK293, Table 1, agonist, normalized to melatonin response
[8] = panel of widely-used MTR ligands
[9] = HEK293, Table 2, cell marked Inverse (inverse agonist)
[10] = cell marked Inverse (inverse agonist)
[11] = HEK293, Table 2, agonist, normalized to melatonin response
[12] = HEK293, Table 2, agonist, normalized to melatonin response, read-out: MT1 % Emax (converted)

hMT1, sequence (P48039 whole entry): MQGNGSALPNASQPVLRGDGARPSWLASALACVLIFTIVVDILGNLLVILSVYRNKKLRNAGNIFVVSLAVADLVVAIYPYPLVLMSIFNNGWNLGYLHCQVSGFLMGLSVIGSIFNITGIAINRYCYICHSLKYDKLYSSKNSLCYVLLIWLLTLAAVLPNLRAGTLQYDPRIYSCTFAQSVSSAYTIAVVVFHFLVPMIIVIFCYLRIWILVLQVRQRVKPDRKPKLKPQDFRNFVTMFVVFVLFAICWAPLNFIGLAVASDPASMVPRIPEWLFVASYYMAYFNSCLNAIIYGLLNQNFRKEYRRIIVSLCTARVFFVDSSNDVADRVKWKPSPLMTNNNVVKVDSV

Emax [1, 3]: 30% | EC50 [1, 4]: 75.9 nM
Compound: c1cc(NCc2ccc(C3CCC3)nc2)cc(-c2cc[nH]n2)c1 [Compound Z3668902476]

type selectivity [2, 5]: little type selectivity
Compound: CCC(=O)NC1CCc2cccc(OC)c2C1 (stereo not shown) [Compound 8M-PDOT, reference compound]

efficacy at the MT2 receptor [2, 5]: partial agonism
Compound: CCCCC(=O)NCCc1c(Cc2ccccc2)[nH]c2ccccc12 [DH97, reference compound]

Compound: COC(=O)c1cc(Cn2ccn3c(=O)cc(C)nc23)c(C)s1 [ZINC419113878]
MT2 activity [2]: without detectable MT2 activity | Emax [1, 6]: 84% | MT1 pEC50 ([1]; Table 1, agonist): 5.20 ± 0.08 | EC50 ([1]; agonist, read-out: EC50 at MT1): 2000 to 6000 nM

Compound: COC(=O)c1sc(N(C)Cc2ccc(Cl)nc2)nc1Cl [ZINC92585174]
Emax [2, 7]: 74% | Emax [1, 6]: 98% | MT1 pEC50 ([1]; Table 1, agonist): 7.80 ± 0.17

type selectivity [2, 5]: little type selectivity
Compound: COc1ccc2cccc(CCNC(C)=O)c2c1 [agomelatine, reference compound]

MT2 selectivity (agonist) [2, 8]: 150 fold
Compound: CCC(=O)NC1Cc2ccccc2C(c2ccccc2)C1 (stereo not shown) [Compound 4P-PDOT, reference compound]

Compound: COCCN(Cc1ccc2c(c1)OCO2)c1nc(C(F)(F)F)ns1 [ZINC580731466]
selectivity for the MT2 receptor [2]: ~100 fold | Emax [2, 7]: 98% | Emax [1, 6]: 71% | MT1 pEC50 ([1]; Table 1, agonist): 5.70 ± 0.13

Compound: Clc1cc(Br)ccc1CNc1cccc(-c2nnc[nH]2)c1 [ZINC516666069]
Emax [2, 9]: 118% | MT2 pEC50 [2, 10]: 5.58 ± 0.04 | Emax ([1]; HEK293, Table 2, cell marked Inverse (inverse agonist), read-out: MT1 % Emax (converted)): 42% | MT1 pEC50 ([1]; Table 2, cell marked Inverse (inverse agonist)): 7.05 ± 0.03

Compound: CCc1nc(SCc2cccc(C(=O)OC)c2)nc(O)c1C [ZINC576887661]
Emax [2, 7]: 68% | Emax [1, 6]: 83% | MT1 pEC50 ([1]; Table 1, agonist): 7.10 ± 0.19

Emax [1, 3]: 47% | EC50 [1, 4]: 245 nM
Compound: Cc1nc(-c2cccc(NCc3ncc(Cl)cc3Br)c2)n[nH]1 [Compound Z3668902489]

Compound: COc1ccc(CNc2cccnc2C)cc1C [ZINC91496083]
Emax [2, 11]: 106% | MT2 pEC50 ([2]; agonist): 7.15 ± 0.17 | Emax [1, 12]: 66% | MT1 pEC50 ([1]; Table 2, agonist): 4.65 ± 0.44

Compound: COC(=O)c1cc(Cn2nc(C)c(N)c2C)c(C)s1 [ZINC602421874]
Emax [2, 11]: 66% | MT2 pEC50 ([2]; agonist): 5.35 ± 0.10 | Emax [1, 12]: 51% | MT1 pEC50 ([1]; Table 2, agonist): 4.70 ± 0.11

Compound: COc1ccc(CNc2cccc(-n3nccn3)c2)cc1 [ZINC864032792]
Emax [2, 9]: 35% | MT2 pEC50 [2, 10]: 6.66 ± 0.08 | Emax [1, 12]: 57% | MT1 pEC50 ([1]; Table 2, agonist): 7.49 ± 0.04

Compound: COC(=O)c1ccc(I)c(Oc2ccnc(C)n2)c1 [ZINC432154404]
Emax [2, 7]: 74% | Emax [1, 6]: 95% | MT1 pEC50 ([1]; Table 1, agonist): 6.63 ± 0.17

Compound: CN(Cc1ccc2c(c1)OCO2)c1ccnc(Cl)c1 [ZINC301472854]
Emax [2, 7]: 88% | Emax [1, 6]: 95% | MT1 pEC50 ([1]; Table 1, agonist): 6.03 ± 0.10

Compound: CC(=O)NCCc1c[nH]c2ccccc12 [N-acetyl tryptamine, reference compound]
MT2 selectivity (agonist) [2, 8]: 39 fold

Compound: COC(=O)c1csc(CSc2nnc(C3CC3)[nH]2)c1 [ZINC713465976]
Emax [2, 11]: 94% | MT2 pEC50 ([2]; agonist): 8.23 ± 0.11 | Emax [1, 12]: 101% | MT1 pEC50 ([1]; Table 2, agonist): 7.75 ± 0.22
